Test [1] has as its system Pseudomonas aeruginosa. Kind of test: Antibacterial activity against Pseudomonas aeruginosa ATCC 27853 after overnight incubation by twofold broth dilution technique. The format is functional.
The test system of test [2] is Escherichia coli. Nature of the test: Antibacterial activity against Escherichia coli ATCC 25922 after overnight incubation by twofold broth dilution technique. The format is functional.
In test [3] the test system is Streptococcus pneumoniae. Nature of the test: Antibacterial activity against Streptococcus pneumoniae expressing PenR gene after overnight incubation by twofold broth dilution technique in presence of 2.5% blood. The format is functional. On the technique in general: In broth dilution the organism is exposed to a series of concentrations in liquid medium.
Test [4] has as its system Haemophilus influenzae. Kind of test: Antibacterial activity against Haemophilus influenzae ATCC 31517 after overnight incubation by twofold broth dilution technique. The format is functional.
For test [5], the system named is Enterococcus faecium. Nature of the test: Antibacterial activity against Enterococcus faecium expressing VanA gene after overnight incubation by twofold broth dilution technique. The format is functional.
Test [6] deals with Staphylococcus aureus. Kind of test: Antibacterial activity against Staphylococcus aureus after overnight incubation by twofold broth dilution technique. In kind it is functional.
Test [7] relates to Staphylococcus aureus. Kind of test: Antibacterial activity against methicillin-resistant Staphylococcus aureus after overnight incubation by twofold broth dilution technique. In kind it is functional.
In test [8] the test system is Staphylococcus aureus. Kind of test: Antibacterial activity against Staphylococcus aureus ATCC 25923 after overnight incubation by twofold broth dilution technique. The format is functional.
In test [9] the test system is Staphylococcus aureus. Kind of test: Antibacterial activity against Staphylococcus aureus ATCC 25923 after overnight incubation by twofold broth dilution technique in presence of 10% human serum. In kind it is functional.
Test [10] deals with Staphylococcus aureus. Nature of the test: Antibacterial activity against Staphylococcus aureus ATCC 13709 after overnight incubation by twofold broth dilution technique. In kind it is functional.
Test [11] deals with Human immunodeficiency virus. Nature of the test: Antiviral activity against HIV infected in human MT4 cells assessed as inhibition of virus-induced cytopathogenicity by MTT assay. In kind it is functional, organism-based. For orientation: Protection from cytopathic effect is a common read-out in antiviral testing.
The test system of test [12] is Streptococcus pneumoniae. Nature of the test: Antibacterial activity against Streptococcus pneumoniae expressing PenR gene after overnight incubation by twofold broth dilution technique. The format is functional.
The subject of test [13] is Streptococcus pneumoniae. Nature of the test: Antibacterial activity against Streptococcus pneumoniae ATCC 49619 after overnight incubation by twofold broth dilution technique. The format is functional.
In test [14] the test system is Enterococcus faecalis. Nature of the test: Antibacterial activity against Enterococcus faecalis ATCC 29212 expressing VanS gene after overnight incubation by twofold broth dilution technique. In kind it is functional.
Test [15] has as its system Staphylococcus aureus. Kind of test: Antibacterial activity against Staphylococcus aureus ATCC 25923 after overnight incubation by twofold broth dilution technique in presence of 50% human serum. The format is functional.

≈ marks a conversion by molar mass, not a printed value. Calls of active or inactive are those of the source. The calls are words filed in the database; no cut-off is given here.

On to `CC(=O)NC[C@H]1CN(c2ccc(N3CCOCC3)c(F)c2)C(=O)O1` [LINEZOLID], for which the MIC in [1] was > 32 mg/L; in [2], > 32 mg/L; in test [3] it was 0.25 mg/L; in test [4] it was 16 mg/L (≈ 47.4 µM); in [5] it was 0.5 mg/L (≈ 1.48 µM); in test [6], 1 mg/L (≈ 2.96 µM). Besides, the MIC came out at 1 mg/L (≈ 2.96 µM) in test [7], 1 mg/L (≈ 2.96 µM) in test [8], 1 mg/L in test [9] and 1 mg/L (≈ 2.96 µM) in [10].
For the compound `O=c1[nH]c(=O)n([C@H]2C[C@H](O)[C@@H](CO)O2)cc1-c1nc2cc3ccccc3cc2[nH]1`, in test [11], the inhibition entry is “inactive”. Besides, the MIC in test [1], in [2], in test [3], in test [4], in test [12] and in test [5] was > 64 mg/L throughout. The MIC in test [13], in test [14], in [6], in test [15], in test [8] and in test [9] was > 64 mg/L in each case. Also, the MIC in test [10] was > 64 mg/L.
Take `O=c1[nH]c(=O)n([C@H]2C[C@H](O)[C@@H](CO)O2)cc1-c1nc2cc(C(F)(F)F)cc(Cl)c2[nH]1`: the inhibition result in test [11] is “inactive”. Moreover, the MIC in test [1] is > 64 mg/L; in test [2] it was > 64 mg/L; in test [3], 16 mg/L; in test [4] it was > 64 mg/L; in test [12], 4 mg/L (≈ 8.95 µM); in test [5] it was 1 mg/L (≈ 2.24 µM). Besides, the MIC in [13] was 4 mg/L (≈ 8.95 µM); in [14], 2 mg/L (≈ 4.48 µM); in test [6], 2 mg/L (≈ 4.48 µM); in [7], 2 mg/L (≈ 4.48 µM); in test [15], > 64 mg/L; in [8] it was 2 mg/L (≈ 4.48 µM). Besides, the MIC in test [9] was > 64 mg/L; in test [10], 2 mg/L (≈ 4.48 µM).
Take `COc1ccc2nc(-c3cn([C@H]4C[C@H](O)[C@@H](CO)O4)c(=O)[nH]c3=O)[nH]c2c1`: the inhibition entry in test [11] was “inactive”. Further, the MIC in test [1], in test [2], in [3], in test [4], in [12] and in [5] was > 64 mg/L in each case. Further, the MIC in test [13], in [14], in test [6], in [15], in test [8] and in test [9] was > 64 mg/L each time. The MIC in test [10] was > 64 mg/L.
Consider `O=c1[nH]c(=O)n([C@H]2C[C@H](O)[C@@H](CO)O2)cc1-c1nc2c3ccccc3c3ccccc3c2[nH]1`, for which the inhibition result in test [11] is “inactive”. The MIC in test [1], in [2], in [3], in [4], in test [12] and in [5] was > 64 mg/L each time. Further, the MIC in test [13], in [14], in test [6], in test [15], in [8] and in test [9] was > 64 mg/L each time. In [10], the MIC is > 64 mg/L.
For the compound `O=c1[nH]c(=O)n([C@H]2C[C@H](O)[C@@H](CO)O2)cc1-c1nc2ccccc2[nH]1`, in test [11], the inhibition result is “inactive”. Also, the MIC in test [1], in test [2], in test [3], in test [4], in test [12] and in [5] was > 64 mg/L in each case. Besides, the MIC in test [13], in test [14], in test [6], in test [15], in test [8] and in [9] was > 64 mg/L each time. The MIC in test [10] is > 64 mg/L.
Take `O=c1[nH]c(=O)n([C@H]2C[C@H](O)[C@@H](CO)O2)cc1-c1nc2ccc(C(F)(F)F)cc2[nH]1`: the inhibition entry in test [11] was “inactive”. The MIC in test [1] is > 64 mg/L; in test [2] it was > 64 mg/L; in [3] it was 64 mg/L; in test [4], 4 mg/L (≈ 9.7 µM); in test [12] it was 32 mg/L (≈ 77.6 µM); in [5], 64 mg/L (≈ 155 µM). For the same compound, the MIC is 64 mg/L (≈ 155 µM) in test [13]; > 64 mg/L in test [14]; > 64 mg/L in test [6]; > 64 mg/L in test [15]; > 64 mg/L in test [8]; > 64 mg/L in test [9]. The MIC in [10] is > 64 mg/L.
As to `Cc1ccc2nc(-c3cn([C@H]4C[C@H](O)[C@@H](CO)O4)c(=O)[nH]c3=O)[nH]c2c1`, the inhibition entry in [11] was “inactive”. The MIC in [1], in test [2], in [3], in test [4], in test [12] and in [5] was > 64 mg/L each time. Further, the MIC in test [13], in test [14], in test [6], in test [15], in test [8] and in [9] was > 64 mg/L in each case. In addition, in [10], the MIC was > 64 mg/L.
Consider `O=c1[nH]c(=O)n([C@H]2C[C@H](O)[C@@H](CO)O2)cc1-c1nc2ccc(F)cc2[nH]1`, for which the inhibition result in [11] is “inactive”. Moreover, the MIC in test [1], in test [2], in [3], in test [4], in [12] and in test [5] was > 64 mg/L each time. In addition, the MIC in test [13], in test [14], in test [6], in test [15], in test [8] and in test [9] was > 64 mg/L each time. Besides, the MIC in test [10] was > 64 mg/L.
Consider `O=C(O)c1cn(C2CC2)c2cc(N3CCNCC3)c(F)cc2c1=O` [CIPROFLOXACIN], for which the MIC is ≤ 0.03 mg/L in test [2]; ≤ 0.03 mg/L in test [4]; 16 mg/L (≈ 48.3 µM) in [5]; 1 mg/L (≈ 3.02 µM) in test [13]; 0.5 mg/L (≈ 1.51 µM) in test [14]; 0.12 mg/L (≈ 0.362 µM) in test [6]. The MIC stood at 8 mg/L (≈ 24.1 µM) in test [7]; 0.5 mg/L in test [15]; 0.25 mg/L (≈ 0.754 µM) in test [8]; 0.25 mg/L in [9]; 0.12 mg/L (≈ 0.362 µM) in test [10].

Source of the values: ChEMBL document CHEMBL1933053, “Efficient microwave-assisted synthesis, antibacterial activity and high fluorescence of 5 benzimidazolyl-2'-deoxyuridines” (2012).
